Reference: ChEMBL document CHEMBL4421728, “Bach1 Inhibitors in Combination with Nrf2 Activators and Pharmaceutical Compositions Thereof” (2017)

Tests used:
[1] = target: T1, Transcription regulator protein BACH1 (Homo sapiens) (UniProt O14867); assay: Inhibition of Bach1 in normal human lung fibroblasts assessed as induction of HMOX protein expression at 1.25 uM incubated for 16 to 18 hrs in presence of 0.078 uM Nrf2 activator Bardoxolone methyl by immunostaining relative to control
T1 sequence (whole entry): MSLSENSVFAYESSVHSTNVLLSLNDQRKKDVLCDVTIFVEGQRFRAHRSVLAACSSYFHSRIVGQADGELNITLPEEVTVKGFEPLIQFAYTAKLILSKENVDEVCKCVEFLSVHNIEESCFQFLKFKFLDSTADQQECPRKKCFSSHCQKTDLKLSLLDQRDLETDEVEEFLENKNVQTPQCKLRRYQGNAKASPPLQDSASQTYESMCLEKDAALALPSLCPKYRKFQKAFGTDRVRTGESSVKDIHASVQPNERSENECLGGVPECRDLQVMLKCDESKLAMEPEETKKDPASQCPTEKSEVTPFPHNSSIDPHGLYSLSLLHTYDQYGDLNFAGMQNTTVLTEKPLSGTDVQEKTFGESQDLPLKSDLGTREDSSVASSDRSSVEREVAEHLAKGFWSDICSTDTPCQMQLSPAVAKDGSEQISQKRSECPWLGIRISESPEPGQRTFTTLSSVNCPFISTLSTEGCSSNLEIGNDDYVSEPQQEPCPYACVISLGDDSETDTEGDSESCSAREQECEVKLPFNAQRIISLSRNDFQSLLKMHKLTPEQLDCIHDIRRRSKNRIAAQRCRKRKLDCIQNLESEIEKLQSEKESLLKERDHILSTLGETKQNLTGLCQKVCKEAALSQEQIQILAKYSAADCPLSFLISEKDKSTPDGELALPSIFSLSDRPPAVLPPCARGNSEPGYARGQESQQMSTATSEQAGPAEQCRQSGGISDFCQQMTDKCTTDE

[2] = target: T1, Transcription regulator protein BACH1 (Homo sapiens); assay: Inhibition of Bach1 in normal human lung fibroblasts assessed as induction of HMOX protein expression at 0.312 uM incubated for 16 to 18 hrs by immunostaining relative to control
[3] = target: T1, Transcription regulator protein BACH1 (Homo sapiens); assay: Inhibition of Bach1 in normal human lung fibroblasts assessed as induction of HMOX protein expression at 0.019 uM incubated for 16 to 18 hrs in presence of 0.019 uM Nrf2 activator Bardoxolone methyl by immunostaining relative to control
[4] = target: T1, Transcription regulator protein BACH1 (Homo sapiens); assay: Inhibition of Bach1 in normal human lung fibroblasts assessed as induction of HMOX protein expression at 0.078 uM incubated for 16 to 18 hrs in presence of 0.312 uM Nrf2 activator Bardoxolone methyl by immunostaining relative to control
[5] = target: T1, Transcription regulator protein BACH1 (Homo sapiens); assay: Inhibition of Bach1 in normal human lung fibroblasts assessed as induction of HMOX protein expression at 0.078 uM incubated for 16 to 18 hrs in presence of 0.0024 uM Nrf2 activator Bardoxolone methyl by immunostaining relative to control
[6] = target: T1, Transcription regulator protein BACH1 (Homo sapiens); assay: Inhibition of Bach1 in normal human lung fibroblasts assessed as induction of HMOX protein expression at 0.019 uM incubated for 16 to 18 hrs in presence of 0.312 uM Nrf2 activator Bardoxolone methyl by immunostaining relative to control
[7] = target: T1, Transcription regulator protein BACH1 (Homo sapiens); assay: Inhibition of Bach1 in normal human lung fibroblasts assessed as induction of HMOX protein expression at 0.625 uM incubated for 16 to 18 hrs in presence of 0.039 uM Nrf2 activator Bardoxolone methyl by immunostaining relative to control
[8] = target: T1, Transcription regulator protein BACH1 (Homo sapiens); assay: Inhibition of Bach1 in normal human lung fibroblasts assessed as induction of HMOX protein expression at 0.156 uM incubated for 16 to 18 hrs in presence of 0.312 uM Nrf2 activator Bardoxolone methyl by immunostaining relative to control
[9] = target: T1, Transcription regulator protein BACH1 (Homo sapiens); assay: Inhibition of Bach1 in normal human lung fibroblasts assessed as induction of HMOX protein expression at 0.156 uM incubated for 16 to 18 hrs in presence of 0.156 uM Nrf2 activator Bardoxolone methyl by immunostaining relative to control
[10] = target: T1, Transcription regulator protein BACH1 (Homo sapiens); assay: Inhibition of Bach1 in normal human lung fibroblasts assessed as induction of HMOX protein expression at 1.25 uM incubated for 16 to 18 hrs in presence of 0.156 uM Nrf2 activator Bardoxolone methyl by immunostaining relative to control
[11] = target: T1, Transcription regulator protein BACH1 (Homo sapiens); assay: Inhibition of Bach1 in normal human lung fibroblasts assessed as induction of HMOX protein expression at 0.625 uM incubated for 16 to 18 hrs in presence of 0.078 uM Nrf2 activator Bardoxolone methyl by immunostaining relative to control
[12] = target: T1, Transcription regulator protein BACH1 (Homo sapiens); assay: Inhibition of Bach1 in normal human lung fibroblasts assessed as induction of HMOX protein expression at 2.5 uM incubated for 16 to 18 hrs in presence of 0.0024 uM Nrf2 activator Bardoxolone methyl by immunostaining relative to control
[13] = target: T1, Transcription regulator protein BACH1 (Homo sapiens); assay: Inhibition of Bach1 in normal human lung fibroblasts assessed as induction of HMOX protein expression at 0.156 uM incubated for 16 to 18 hrs in presence of 0.0097 uM Nrf2 activator Bardoxolone methyl by immunostaining relative to control
[14] = target: T1, Transcription regulator protein BACH1 (Homo sapiens); assay: Inhibition of Bach1 in normal human lung fibroblasts assessed as induction of HMOX protein expression at 0.156 uM incubated for 16 to 18 hrs in presence of 0.0024 uM Nrf2 activator Bardoxolone methyl by immunostaining relative to control
[15] = target: T1, Transcription regulator protein BACH1 (Homo sapiens); assay: Inhibition of Bach1 in normal human lung fibroblasts assessed as induction of HMOX protein expression at 0.312 uM incubated for 16 to 18 hrs in presence of 0.0024 uM Nrf2 activator Bardoxolone methyl by immunostaining relative to control
[16] = target: T1, Transcription regulator protein BACH1 (Homo sapiens); assay: Inhibition of Bach1 in normal human lung fibroblasts assessed as induction of HMOX protein expression at 2.5 uM incubated for 16 to 18 hrs in presence of 0.039 uM Nrf2 activator Bardoxolone methyl by immunostaining relative to control
[17] = target: T1, Transcription regulator protein BACH1 (Homo sapiens); assay: Inhibition of Bach1 in normal human lung fibroblasts assessed as induction of HMOX protein expression at 0.039 uM incubated for 16 to 18 hrs in presence of 0.078 uM Nrf2 activator Bardoxolone methyl by immunostaining relative to control
[18] = target: T1, Transcription regulator protein BACH1 (Homo sapiens); assay: Inhibition of Bach1 in normal human lung fibroblasts assessed as induction of HMOX protein expression at 2.5 uM incubated for 16 to 18 hrs in presence of 0.156 uM Nrf2 activator Bardoxolone methyl by immunostaining relative to control
[19] = target: T1, Transcription regulator protein BACH1 (Homo sapiens); assay: Inhibition of Bach1 in normal human lung fibroblasts assessed as induction of HMOX protein expression at 1.25 uM incubated for 16 to 18 hrs in presence of 0.312 uM Nrf2 activator Bardoxolone methyl by immunostaining relative to control
[20] = target: T1, Transcription regulator protein BACH1 (Homo sapiens); assay: Inhibition of Bach1 in normal human lung fibroblasts assessed as induction of HMOX protein expression at 1.25 uM incubated for 16 to 18 hrs in presence of 0.0097 uM Nrf2 activator Bardoxolone methyl by immunostaining relative to control

CNC(=O)c1ccc2c(c1)nc(Nc1nc3ccc(OC(F)(F)F)cc3s1)n2C
fold change (FC) [1]: 15.2
fold change (FC) [2]: 9.82
fold change (FC) [3]: 10
fold change (FC) [4]: 15.3
fold change (FC) [5]: 4.25
fold change (FC) [6]: 17.2
fold change (FC) [7]: 17.2
fold change (FC) [8]: 16
fold change (FC) [9]: 18.3
fold change (FC) [10]: 16.6
fold change (FC) [11]: 18.6
fold change (FC) [12]: 18.8
fold change (FC) [13]: 12.1
fold change (FC) [14]: 7.32
fold change (FC) [15]: 11.7
fold change (FC) [16]: 14.7
fold change (FC) [17]: 18.7
fold change (FC) [18]: 12.5
fold change (FC) [19]: 10.5
fold change (FC) [20]: 16.5
